Usually inhibition stands for the relative decrease from the control value, in per cent.

Test [1] addresses T1, Fatty-acid amide hydrolase 1 (Homo sapiens) (UniProt O00519).
T1 sequence (whole entry): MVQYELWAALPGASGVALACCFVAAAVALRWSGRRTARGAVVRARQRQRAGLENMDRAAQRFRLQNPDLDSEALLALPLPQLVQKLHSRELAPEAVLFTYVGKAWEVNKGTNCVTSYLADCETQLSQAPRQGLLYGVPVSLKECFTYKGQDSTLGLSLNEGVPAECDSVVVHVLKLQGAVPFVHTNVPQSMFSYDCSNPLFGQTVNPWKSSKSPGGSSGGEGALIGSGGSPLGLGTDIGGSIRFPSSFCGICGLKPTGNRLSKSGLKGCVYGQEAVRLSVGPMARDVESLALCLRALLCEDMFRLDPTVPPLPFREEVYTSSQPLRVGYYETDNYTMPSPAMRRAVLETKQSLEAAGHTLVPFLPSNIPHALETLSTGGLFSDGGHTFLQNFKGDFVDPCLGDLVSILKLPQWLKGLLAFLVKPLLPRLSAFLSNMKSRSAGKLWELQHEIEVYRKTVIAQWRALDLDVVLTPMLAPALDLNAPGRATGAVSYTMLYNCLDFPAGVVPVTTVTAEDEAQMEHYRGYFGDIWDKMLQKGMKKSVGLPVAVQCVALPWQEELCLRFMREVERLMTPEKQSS
The experiment in a line: Noncompetitive inhibition of human recombinant FAAH overexpressed in African green monkey COS7 cells using anandamide as substrate assessed as decrease in Vmax of substrate hydrolysis preincubated for 10 mins before substrate addition measured after 10 mins by HPLC analysis. Particulars: COS-7.

The species named for another test is Homo sapiens. The experiment in a line: Selectivity ratio for human recombinant FAAH over human recombinant MAGL.
For test [2], the target named is T1, Fatty-acid amide hydrolase 1 (Homo sapiens). Description: Inhibition of human recombinant FAAH overexpressed in African green monkey COS7 cells using [3H]-anandamide as substrate at 10 to 100 uM preincubated for 10 to 60 mins by liquid scintillation counting analysis. In kind it is cell-based. Particulars: COS-7.
For test [3], the target named is T2, Monoacylglycerol lipase ABHD6 (Mus musculus) (UniProt Q8R2Y0).
T2 sequence (whole entry): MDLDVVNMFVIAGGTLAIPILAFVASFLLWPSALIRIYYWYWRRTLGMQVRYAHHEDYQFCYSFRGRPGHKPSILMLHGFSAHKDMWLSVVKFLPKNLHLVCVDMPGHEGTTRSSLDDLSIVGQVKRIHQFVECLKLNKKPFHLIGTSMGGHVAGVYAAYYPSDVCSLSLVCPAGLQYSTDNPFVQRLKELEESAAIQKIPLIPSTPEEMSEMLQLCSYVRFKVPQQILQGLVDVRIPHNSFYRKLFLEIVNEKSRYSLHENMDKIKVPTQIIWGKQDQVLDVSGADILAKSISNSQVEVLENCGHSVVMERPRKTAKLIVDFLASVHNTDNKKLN
The experiment in a line: Inhibition of TAMRA-FP-labeled ABHD6 in mouse brain membrane at 10 uM after 1 hr by fluorescent gel scanning assay. It counts as cell membranes.

Test [4] addresses Cannabinoid receptor 1 (Rattus norvegicus) (UniProt P20272). Description: Antagonist activity at CB1 receptor in rat cerebellar membranes assessed as HU210-evoked response up to 10 uM incubated for 10 mins prior to testing by [35S]GTPgammaS binding assay. In kind it is functional, cell membranes. Particulars: Cerebellum, Membrane. (Binding of GTPγS marks nucleotide exchange on a G protein.)

For test [5], the target named is T3, Prostaglandin G/H synthase 2 (Homo sapiens) (UniProt P35354).
T3 sequence (whole entry): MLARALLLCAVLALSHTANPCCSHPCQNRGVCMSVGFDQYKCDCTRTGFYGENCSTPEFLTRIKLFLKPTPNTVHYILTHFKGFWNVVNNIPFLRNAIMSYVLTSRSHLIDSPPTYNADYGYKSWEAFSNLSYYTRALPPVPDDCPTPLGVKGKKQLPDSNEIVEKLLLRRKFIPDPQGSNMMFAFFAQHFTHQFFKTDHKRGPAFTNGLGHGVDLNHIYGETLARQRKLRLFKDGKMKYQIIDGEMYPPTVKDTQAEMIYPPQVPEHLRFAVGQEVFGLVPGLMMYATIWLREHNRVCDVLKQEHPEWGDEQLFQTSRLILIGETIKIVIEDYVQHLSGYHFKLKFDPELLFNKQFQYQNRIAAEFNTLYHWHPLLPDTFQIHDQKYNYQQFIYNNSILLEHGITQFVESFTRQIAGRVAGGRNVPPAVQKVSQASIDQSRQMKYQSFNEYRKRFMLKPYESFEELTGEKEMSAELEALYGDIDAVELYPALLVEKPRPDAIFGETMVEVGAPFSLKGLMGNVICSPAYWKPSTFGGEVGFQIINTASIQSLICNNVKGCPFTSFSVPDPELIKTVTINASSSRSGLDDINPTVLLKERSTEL
Description: Inhibition of human recombinant COX-2 assessed as inhibition of 2-AG cyclooxygenation at 30 uM measured within 10 to 50 secs relative to control.

For test [6], the target named is T4, Monoacylglycerol lipase ABHD6 (Homo sapiens) (UniProt Q9BV23).
T4 sequence (whole entry): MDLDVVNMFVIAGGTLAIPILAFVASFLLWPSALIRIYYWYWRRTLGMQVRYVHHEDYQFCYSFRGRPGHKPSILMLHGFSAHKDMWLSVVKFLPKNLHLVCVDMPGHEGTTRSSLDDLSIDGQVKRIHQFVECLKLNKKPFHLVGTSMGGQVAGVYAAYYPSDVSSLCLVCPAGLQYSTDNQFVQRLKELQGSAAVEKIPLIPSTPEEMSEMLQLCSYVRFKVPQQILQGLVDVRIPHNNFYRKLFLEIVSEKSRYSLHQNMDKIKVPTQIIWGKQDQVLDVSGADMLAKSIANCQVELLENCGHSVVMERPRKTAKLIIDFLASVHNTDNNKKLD
Description: Inhibition of human ABHD6 overexpressed in HEK293 cells assessed as 2-AG hydrolysis at 1 uM by fluorescent glycerol assay. In kind it is cell-based.

In test [7] the target is T5, Monoglyceride lipase (Mus musculus) (UniProt O35678).
T5 sequence (whole entry): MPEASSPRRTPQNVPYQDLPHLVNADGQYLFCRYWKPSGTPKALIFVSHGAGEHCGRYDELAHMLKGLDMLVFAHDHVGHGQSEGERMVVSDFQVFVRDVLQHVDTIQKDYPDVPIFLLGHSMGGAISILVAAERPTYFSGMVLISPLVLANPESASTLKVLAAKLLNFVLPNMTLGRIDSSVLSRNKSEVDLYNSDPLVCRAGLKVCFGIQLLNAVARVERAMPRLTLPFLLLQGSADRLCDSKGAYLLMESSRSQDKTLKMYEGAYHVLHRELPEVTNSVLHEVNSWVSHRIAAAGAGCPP
Description: Inhibition of TAMRA-FP-labeled MAGL in mouse brain membrane at 10 uM after 1 hr by fluorescent gel scanning assay. In kind it is cell membranes.

Test [8] has as its target Cannabinoid receptor 1 (Rattus norvegicus) (UniProt P20272). Description: Agonist activity at CB1 receptor in rat cerebellar membranes up to 10 uM incubated for 10 mins prior to testing by [35S]GTPgammaS binding assay. It counts as functional, cell membranes. Particulars: Cerebellum, Membrane.

Each structure is given as a SMILES string. Activity calls are given as the source filed them. No cut-off for these calls is given here.

Sequence of Cannabinoid receptor 1 (Rattus norvegicus) (P20272 whole entry): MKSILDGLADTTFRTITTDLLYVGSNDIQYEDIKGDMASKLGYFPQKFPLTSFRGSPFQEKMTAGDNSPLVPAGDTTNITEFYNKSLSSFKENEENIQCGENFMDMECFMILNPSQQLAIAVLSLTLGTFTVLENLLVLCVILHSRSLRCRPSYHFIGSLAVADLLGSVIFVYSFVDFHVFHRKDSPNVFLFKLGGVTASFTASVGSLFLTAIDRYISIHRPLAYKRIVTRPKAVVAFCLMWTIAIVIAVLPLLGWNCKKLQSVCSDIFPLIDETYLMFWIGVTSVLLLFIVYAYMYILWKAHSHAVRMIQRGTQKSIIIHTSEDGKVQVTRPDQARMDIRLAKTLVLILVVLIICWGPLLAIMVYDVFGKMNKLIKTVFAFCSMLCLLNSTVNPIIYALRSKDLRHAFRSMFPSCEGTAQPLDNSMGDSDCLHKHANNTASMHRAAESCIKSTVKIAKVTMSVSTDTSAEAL

Turning to `COc1nn([C@@H](C)c2ccc(CC(C)C)cc2)c(=O)o1`, the inhibition entry in [1] was “Dose-dependent effect”; in test [5], 20%. In addition, in the test filed under Homo sapiens, the Selectivity ratio was over 900. The inhibition entry in test [2] was “Active”. Besides, the inhibition entry in test [3], in [6] and in test [7] was “inactive” throughout. The result in test [4] and in [8] was inactive.
